The record followed here is patent US9434687B2, “Detection of synthetic cannabinoids” (priority 2011, dated 2016).

Format in all cases: binding, sheep
Test [1] relates to antiserum raised to Immunogen II (Hapten B-BTG). The experiment in a line: Competitive ELISA microtiter plate assay, antiserum raised to Immunogen II, conjugate Hapten A-HRP (Example 19). The procedure: (§1) Aqueous solutions of the immunogens prepared in examples 5 and 13 were formulated with Freund's Complete Adjuvant (FCA) to form emulsions consisting of 2 mg/ml Immunogen I and 2 mg/ml of Immunogen II in 50% (v/v) FCA. Three sheep were immunised with each emulsion (1° immunisations), 0.25 ml being intramuscularly injected at four sites in the rump of each animal. Subsequent immunisations (boosts 2-8) contained 1 mg/ml Immunogen I and 1 mg/ml Immunogen II. All boosts were emulsified in 50% (v/v) Freund's Incomplete Adjuvant (FIA) and administered to the appropriate sheep in the same manner as the 1° immunisations, at monthly intervals. Blood sampling took place 7-14 days after each boost. Each sample was processed to produce antiserum, which was further purified by caprylic acid and ammonium sulphate precipitation to yield an immunoglobulin (Ig) fraction. The Ig fraction was evaluated by competitive ELISA microtiter plate assay, as described in example 19 below.
(§2) (a) The wells of an enhanced binding 96 well polystyrene microtiter plate were coated with the Ig fraction of the antiserum raised to Immunogen I (Hapten A-BTG—example 5) and diluted in 10 mM Tris, pH8.5 (125 μl/well). The appropriate antibody coating concentration was determined using standard ELISA checkerboard techniques. The plate was incubated for 2 hours at 37° C., washed 4 times over a 10-minute period with Tris buffered saline containing Tween 20 (TBST) and tapped dry. Standard solutions of JWH synthetic cannabinoids, metabolites and selected molecules were prepared in TBST and 50 μl of each was added to the appropriate wells. 75 μl of conjugate (Hapten A-HRP) diluted in Tris buffer containing EDTA, D-mannitol, sucrose, thimerosal and BSA, was added to each of the wells. The appropriate dilution of conjugate was also determined using standard ELISA checkerboard techniques. The plate was incubated at 25° C. for 1 hour. The excess unbound conjugate was removed by washing 6 times over a 10-minute period with TBST and tapped dry. 125 μl of tetramethylbenzedine (TMB) substrate solution was added to each well of the plate that was then incubated for 15-20 minutes in the dark at room temperature. The reaction was terminated by addition of 125 μl of 0.2M sulphuric acid to each well. The absorbance was then measured at 450 nm using a microtiter plate reader.
(§3) Employing each series of standards, calibration curves were generated and these were used to determine the specificity of the immunoassay for the JWH synthetic cannabinoids, metabolites and selected molecules. The results of this study are presented in Tables 1 to 3, cross-reactivity being calculated according to the following formula: % CR=IC50,JWH-018/IC50,CR×100
(§4) Where % CR is the percentage cross-reactivity, IC50, JWH-018 is the concentration of JWH-018 that causes 50% displacement of signal and IC50, CR is the concentration of JWH synthetic cannabinoid/metabolite/selected molecule that causes 50% displacement of signal.
Table 1: Data generated from a competitive microtiter plate assay for JWH synthetic cannabinoids and metabolites, employing antiserum raised to Immunogen II (Hapten B-BTG) and conjugate (Hapten A-HRP) as detection reagent.
(§5) (d) The resulting competitive ELISA for synthetic cannabinoids and metabolites was also employed to test for the 5-fluoropentyl derivative of JWH-018, (1-(5-fluoropentyl)indol-3yl (1-naphthyl) methanone (Table 4).

Test [2] has as its system antiserum raised to Immunogen I (Hapten A-BTG). The experiment in a line: Competitive ELISA microtiter plate assay, antiserum raised to Immunogen I, conjugate Hapten A-HRP (Example 19). The procedure: as §1, §2, §3, §4
(b) In a similar manner to that described in Example 19(a), the wells of a 96 well microtiter plate were coated with the Ig fraction of the antiserum raised to Immunogen I (Hapten A-BTG). Conjugate (Hapten A-HRP) was employed as a detection reagent.
Table 2: Data generated from a competitive microtiter plate assay for JWH synthetic cannabinoids and metabolites, employing antiserum raised to Immunogen I (Hapten A-BTG) and conjugate (Hapten A-HRP) as detection reagent.
as §5
(ELISA stands for enzyme-linked immunosorbent assay.)

Test [3] relates to IgG fraction of antiserum raised to Immunogen II. The experiment in a line: Competitive ELISA, antibody RS1833B12 to Immunogen II, tracer ESC4555 (Example 36).
The mark [4] stands for this setting: Table 1, CR based on 100% for JWH-018.
Setting [5] is: Table 1, detecting agent derived from Hapten-A, 40 ng/ml highest concentration tested.
The mark [6] stands for this setting: Table 2, CR based on 100% for JWH-018.
[7] abbreviates: Table 2, detecting agent derived from Hapten-A, 40 ng/ml highest concentration tested.
The mark [8] stands for this setting: Antibody to Immunogen II, cross-reactants at 100 ng/ml, 1000 ng/ml, standard JWH-018.
Setting [9] is: Table 4, Immunogen II, relative to JWH-018.
[10] abbreviates: Table 4, Immunogen I, relative to JWH-018.

One may read the IC50 as the concentration needed to halve the response being measured. In the case of `CCCCCn1cc(C(=O)c2cccc3ccccc23)c2c(O)cccc21` [4-OH JWH-018, JWH-018 4-hydroxyindole metabolite], the figures for the “% Cross-reactivity” value in test [1] (setting [4]) and in test [2] (setting [6]) were 23.03% and 10.62%, respectively. The half-maximal inhibitory concentration (IC50) was determined as 9.16 ng/mL in test [1] (setting [5]) and 25.51 ng/mL in test [2] (setting [7]). Further, the “% B/B0” value in test [3] (setting [8]) was found to be 29.49%.
On to `CCCCCn1cc(C(=O)c2cccc3ccccc23)c2cc(O)ccc21` [5-OH JWH-018, JWH-018 5-hydroxyindole metabolite], for which the “% Cross-reactivity” value in test [1] (setting [4]) is given as 130.25%; in test [2] (setting [6]), 694.87%. For the same compound, the IC50 is 1.62 ng/mL in test [1] (setting [5]) and 0.39 ng/mL in test [2] (setting [7]). For the same compound, the “binding to the antibody produced from Immunogen I (in words)” value (shortened to “binding to the antibody produced”) in test [2] is reported as “able to bind”. The “% B/B0” value in test [3] (setting [8]) is recorded as 12.14%.
For `CCCCCn1cc(C(=O)c2cccc3ccccc23)c2ccc(O)cc21` [6-OH JWH-018, JWH-018 6-hydroxyindole metabolite], the “% Cross-reactivity” value turned out to be 215.31% in test [1] (setting [4]) and 132.84% in test [2] (setting [6]). Also, the half-inhibitory concentration (IC50) in test [1] (setting [5]) was determined as 0.98 ng/mL; in test [2] (setting [7]) it was 2.04 ng/mL. Besides, the “binding to the antibody produced” value in test [2] was “able to bind”. Besides, the “% B/B0” value in test [3] (setting [8]) was 24.39%.
Consider `O=C(c1cccc2ccccc12)c1cn(CCCCCF)c2ccccc12` [AM-2201, 1-(5-Fluoropentyl)indol-3-yl (1-naphthyl) methanone], for which the IC50 was 0.22 ng/mL in test [1] (Table 4, Immunogen II) and 0.02 ng/mL in test [2] (Table 4, Immunogen I). Further, the figures for the “% Cross-reactivity” value in test [1] (setting [9]) and in test [2] (setting [10]) were 908.00% and 11500.00%, respectively. For the same compound, the “% B/B0” value in test [3] (setting [8]) came out at 11.72%.
On to `O=C(c1cccc2ccccc12)c1cn(CCCCCO)c2ccccc12` [JWH-018 N-(5-hydroxypentyl) metabolite], for which the results for the “% Cross-reactivity” value in test [1] (setting [4]) and in test [2] (setting [6]) were 183.48% and 1505.56%, respectively. Also, the IC50 in test [1] (setting [5]) was determined as 1.15 ng/mL; in test [2] (setting [7]), 0.18 ng/mL. Besides, the “% B/B0” value in test [3] (setting [8]) was 53.38%.
Taken in the same sequence, the figures for `O=C(O)CCCCn1cc(C(=O)c2cccc3ccccc23)c2ccccc21` [JWH-018 N-pentanoic acid metabolite] were 38.50%, 645.24%, 5.48 ng/mL, 0.42 ng/mL and 85.61%.
Regarding `CCCCCn1cc(C(=O)c2cccc3ccccc23)c2ccccc21` [JWH-018], the “% Cross-reactivity” value in test [1] (setting [4]), in test [1] (setting [9]), in test [2] (setting [6]) and in test [2] (setting [10]) was 100.00% each time. For the same compound, the IC50 in test [1] (setting [5]) stood at 2.11 ng/mL; in test [1] (Table 4, Immunogen II), 1.97 ng/mL; in test [2] (setting [7]), 2.71 ng/mL; in test [2] (Table 4, Immunogen I), 2.30 ng/mL; in test [3] (Table 7 standard curve, standard concentration which produces 50% B/B0), 1.333 ng/mL. Moreover, the “binding to the antibody produced” value in test [2] is recorded as “able to bind”. Moreover, the “% B/B0” value in test [3] (setting [8]) turned out to be 9.29%; in test [3] (JWH-018 0.625 ng/ml), 68%; in test [3] (JWH-018 1.25 ng/ml) it was 53%; in test [3] (JWH-018 2.5 ng/ml) it was 34%; in test [3] (JWH-018 5 ng/ml) it was 25%; in test [3] (JWH-018 10 ng/ml), 17%. Also, the “% B/B0” value in test [3] (JWH-018 20 ng/ml) is listed as 13%; in test [3] (JWH-018 40 ng/ml) it was 10%.
Take `CCCCn1cc(C(=O)c2cccc3ccccc23)c2ccccc21` [JWH-073]: the “% Cross-reactivity” value came to 135.26% in test [1] (setting [4]) and 291.40% in test [2] (setting [6]). The figures for the half-maximal inhibitory concentration (IC50) in test [1] (setting [5]) and in test [2] (setting [7]) were 1.56 ng/mL and 0.93 ng/mL, respectively. In addition, the “% B/B0” value in test [3] (setting [8]) turned out to be 15.24%.
With `O=C(c1cccc2ccccc12)c1cn(CCN2CCOCC2)c2ccccc12` [JWH-200], the “% Cross-reactivity” value stood at 127.11% in test [1] (setting [4]) and 874.19% in test [2] (setting [6]). For the same compound, the figures for the IC50 in test [1] (setting [5]) and in test [2] (setting [7]) were 1.66 ng/mL and 0.31 ng/mL, respectively. In addition, the “% B/B0” value in test [3] (setting [8]) was found to be 54.02%.
For `CCCCCn1cc(C(=O)c2ccc(Cl)c3ccccc23)c2ccccc21` [JWH-398] the same measures were 12.02%, <<6.78%, 17.55 ng/mL, >>40 ng/ml and 30.31%.
As for `O=C(c1cccc2ccccc12)c1c[nH]c2ccccc12` [N-desalkyl JWH-018, 3-(1-naphthoyl)-1H-Indole], the “% Cross-reactivity” value in test [1] (setting [4]) is given as <<5.28%; in test [2] (setting [6]) it was 70.57%. Besides, the IC50 in test [1] (setting [5]) is >>40 ng/ml; in test [2] (setting [7]) it was 3.84 ng/mL. Moreover, the “% B/B0” value in test [3] (setting [8]) is 99.18%.
